Results: publication PMC8249445, “Complex effects of macrolide venturicidins on bacterial F-ATPases likely contribute to their action as antibiotic adjuvants” (Scientific Reports, 2021)
Like-named read-outs stand apart in the source and are kept apart here.

Legend:
S. aureus = tested on: S. aureus; set-up: method as in PMID 28874470; settings: cited from earlier work
[1] = biological target: T1, FOF1-ATPase of WT E. coli membranes (Escherichia coli, UniProt P68699); assay: biochemical; type: biochemical; settings: for ATPase activity during the last 3 min of assays: 0.1 mM DCCD alone (trace 1); for Ki: read-out: Ki (early inhibition)
T1 construct: To express haploid levels of EcFOF1 containing WT-ε or ε88-stop; expressed in transfected cells; host or cells: E. coli strain XH1 (chromosomal atpC deletion) carrying pMBε1; inverted membrane vesicles
Description: ATP hydrolysis is enzyme-coupled to conversion of NADH to NAD^+, which results in decreased light absorbance; thus, a larger rate of ATP hydrolysis is indicated by a steeper downward slope. The system also rapidly regenerates ATP, minimizing the concentration of product ADP during the assay. Unless noted, assays were preincubated to establish a steady state hydrolysis rate (see “Methods”) before the ‘zero’ point of measurements.
(§1) Plasmid pXH302S, which encodes the WT atpC gene and expresses near haploid levels of the ε subunit, was subjected to fusion PCR mutagenesis to construct plasmid pMBε1, with an N-terminal affinity tag ([…]) added prior to the initial Met residue. To express the ε88-stop subunit, an AfeI-ScaI restriction fragment of WT pMBε1 was replaced by the analogous fragment from pH6ε88-stop[46]. To express haploid levels of EcFOF1 containing WT-ε or ε88-stop, the appropriate version of pMBε1 was transformed into E. coli strain XH1, which has a chromosomal deletion of the atpC gene for ε[54]. For these transformed strains, cultures were grown and inverted membrane vesicles (IMV) were prepared according to [55]. WT ε, with the same N-terminal His6-tag, was over-expressed from pH6ε and purified as described.
ATP hydrolysis by membrane vesicles was assayed spectrophotometrically[57] at 30 °C using an open-chamber, diode array spectrophotometer (Hewlett Packard 8453 UV–Vis) as described in[29]. The assay medium (1 ml per assay) contained 20 mM Mops/Tris, pH 8.0, 0.2 mM EDTA, 10 mM CH3COOK, 1 mM ATP, 3.2 mM Mg(CH3COO)2, 1 mM phosphoenolpyruvate, at least 0.3 mM NADH, 0.1 mg/ml pyruvate kinase, 0.1 mg/ml lactate dehydrogenase, 5 mM KCN, and 5 μM carbonyl cyanide 4-(trifluoromethoxy)-phenylhydrazone. […] To avoid interference of this increase with the changes of ATPase activity induced by venturicidins, unless indicated otherwise, measurement of ATPase activities were started 60 min after addition of membranes to the complete assay medium. […] To keep absorbance between 1.5 and 2 units after the 60-min preincubation, up to 0.2 mM additional NADH was added to the assay medium. In figures displaying activity traces, some traces are shifted vertically for visual clarity.

[2] = tested on: FOF1 from M. smegmatis (MsFOF1); set-up: method as in PMID 33299175; settings: cited from earlier work
F1 = biological target: F1; set-up: method as in PMID 23400782; settings: read-out: KD of ε dissociation from F1; cited from earlier work
P. aeruginosa = tested on: P. aeruginosa; set-up: method as in PMID 6406266; settings: cited from earlier work
E. coli membrane ATPase = settings: read-out: half-maximal inhibitory concentration of venturicidin; obtained from earlier data; more divergent assay conditions; cited from earlier work
mitoFOF1 = tested on: mitoFOF1; set-up: method as in PMID 124668; settings: cited from earlier work
[3] = biological target: T2, E. coli membranes with FOF1 lacking the ε subunit's CTD (ε88-stop) (Escherichia coli, UniProt P68699); assay: ATP hydrolysis by ε88-stop E. coli membranes, enzyme-coupled spectrophotometric assay; type: biochemical
T2 construct: To express haploid levels of EcFOF1 containing WT-ε or ε88-stop; expressed in transfected cells; host or cells: E. coli strain XH1 (chromosomal atpC deletion) carrying the ε88-stop version of pMBε1; inverted membrane vesicles
Text: We next investigated whether the ε-inhibited state of EcFOF1 also impacts interactions of ventA with the enzyme. The N-terminal domain (NTD) of ε is required for FOF1 assembly and functional coupling of F1 to FO in eukaryotic and bacterial species; the C-terminal domain (CTD) of ε can auto-inhibit FOF1 and isolated F1 from some bacteria and from chloroplasts, but the mitochondrial homolog (δ) is not inhibitory[39],[40]. Thus we measured the effects of ventA on ATPase activity of E. coli membranes expressing ε88-stop, which lacks the autoinhibitory εCTD (Fig. 3). From Table 1 (100% ATPase values), it is clear that selenite activates membrane ATPase more (fourfold) for ε88-stop than for WT (2.8-fold). This is because, without the inhibitory εCTD, more enzyme complexes shift to the MgADP-inhibited state, which can be activated by selenite. […] In contrast, early inhibition of ATPase by ventA has similar Ki values for WT and ε88-stop membranes in the absence (0.7 vs 0.5 μM) or in the presence of selenite (0.23 vs 0.09 μM).
as §1
(§2) ATP hydrolysis by membrane vesicles was assayed spectrophotometrically[57] at 30 °C using an open-chamber, diode array spectrophotometer (Hewlett Packard 8453 UV–Vis) as described in[29]. The assay medium (1 ml per assay) contained 20 mM Mops/Tris, pH 8.0, 0.2 mM EDTA, 10 mM CH3COOK, 1 mM ATP, 3.2 mM Mg(CH3COO)2, 1 mM phosphoenolpyruvate, at least 0.3 mM NADH, 0.1 mg/ml pyruvate kinase, 0.1 mg/ml lactate dehydrogenase, 5 mM KCN, and 5 μM carbonyl cyanide 4-(trifluoromethoxy)-phenylhydrazone. As noted before, the rate of ATP hydrolysis by membranes increases to a small degree during assays. This is due, at least in part, to dissociation of a small fraction of EcF1 and/or ε from the membranes, since the increase is inhibited by added ε (e.g., Fig. 5). To avoid interference of this increase with the changes of ATPase activity induced by venturicidins, unless indicated otherwise, measurement of ATPase activities were started 60 min after addition of membranes to the complete assay medium. This minimizes further increases in ATPase rate during control assays to < 15%. To keep absorbance between 1.5 and 2 units after the 60-min preincubation, up to 0.2 mM additional NADH was added to the assay medium. In figures displaying activity traces, some traces are shifted vertically for visual clarity.

[4] = biological target: T3, PaFOF1 in membranes from P. aeruginosa strain PAO1 (Pseudomonas aeruginosa, UniProt Q9HT15); assay: ATP hydrolysis by P. aeruginosa PAO1 membranes, enzyme-coupled spectrophotometric assay; type: biochemical
T3 construct: endogenous in cells; host or cells: P. aeruginosa strain PAO1, inverted membrane vesicles
Description: P. aeruginosa strain PAO1 was grown in LB medium at 37 °C as described. For preparation of IMV, final cultures used 1 L of LB per 2L baffled flask and were inoculated from an overnight culture at an initial OD600 ~ 0.025. Cultures were shaken at 250 rpm and monitored until they reached mid- to late-logarithmic growth phase (OD600, 1–1.4). Cultures were chilled and subsequent steps for cell lysis and isolation of IMV were done at 4 °C. Cells were sedimented by centrifugation (3,700 × g, 30 min). Cells from 1 to 2 L of culture (~ 2–3 g wet cells/L) were resuspended in 25–40 ml of STEM buffer (TEM buffer plus sucrose[55]), transferred to a 50 ml Oak Ridge tube, sedimented again (11,617 × g, 10 min), resuspended in 20–40 ml of STEM and frozen at -80 °C. Thawed cells were lysed by two sequential passages through an SLM-Aminco French pressure cell at ~ 16,000 psi, essentially as described for E. coli[55]; the pressure cell was enclosed in a clear biohazard bag (MiniGrip, IP2024B3T) during use to contain any aerosols formed. Unlysed cells and cell wall debris were removed by centrifugation (50 ml Oak Ridge tubes, 16,743 × g, 25 min): the supernate was diluted with MTGM7.5 buffer (50 mM MOPS-TRIS, 10%(v/v) glycerol, 5 mM Mg(CH3COO)2, pH 7.5) and centrifugation was repeated at least twice, recovering the supernate each time. The final supernatant lysate was stored at -80 °C. To isolate IMV, the cleared lysate was thawed quickly and diluted with MTGM7.5 as needed to fill 1 or 2 polycarbonate tubes for use in a Beckman Ti70 rotor. The IMV (membranes) were sedimented by ultracentrifugation (250,000 × g max) for 1 h, the membranes were resuspended in MTGM7.5 buffer to fill one Ti70 tube and ultracentrifugation was repeated for 45 min. The membranes were resuspended in a small volume of MTGM7.5 buffer (typically ≥ 10 mg membrane protein/ml) and homogenized manually (Potter–Elvehjem type). Small aliquots of the final membrane sample were quick-frozen in liquid nitrogen and stored at − 80 °C.
as §2

[5] = WT, 38.5 mM selenite (Fig. S1 panel B)

Oligomycin A
Adjuvant activity for polymyxin B (S. aureus): potent adjuvant

C(=NC1CCCCC1)=NC1CCCCC1 [DCCD, N,N′-dicyclohexylcarbodiimide]
ATPase activity during the last 3 min of assays ([1]; 38.5 mM selenite): 0.85 U/mg
ATPase activity during the last 3 min of assays ([1]; no selenite): 0.20 (± 0.02) U/mg
inhibition at 100 µM ([1]; read-out: Inhibition of ATPase activity): 73%

COc1nc2ccc(Br)cc2cc1[C@@H](c1ccccc1)[C@@](O)(CCN(C)C)c1cccc2ccccc12 [BDQ, bedaquiline]
Effect of micromolar BDQ on ATPase activity ([2]; micromolar BDQ): most activity was restored
Inhibition of ATPase ([2]; nanomolar BDQ): ~ 80%

ε: purified WT ε subunit of E. coli FOF1 with N-terminal His6-tag, added exogenously
Late rate (last 3 min of assay) ([1]; 67 nM ε added after 9.5 μM ventA, 38.5 mM selenite (Fig. 5A #4)): 0.28 U/mg
Late rate (last 3 min of assay) ([1]; 67 nM ε, 38.5 mM selenite (Fig. 5A #2)): 1.4 U/mg
Immediate inhibition of ATPase activity ([1]; excess ε (67 nM), without ventA, selenite present): ~ 30%
Immediate inhibition of ventA-recovered ATPase activity ([1]; excess ε added after 9.5 μM ventA, selenite present (Fig. 5A trace 4)): ~ 90%
Kd (F1): < 0.001 µM

venturicidin
Decrease of cellular ATP (P. aeruginosa; anaerobic fermentation of L-arginine): ~ tenfold
Time to eliminate Δψ and flagellar motility (P. aeruginosa; anaerobic): ≤ 3.5 min
Reduction of cellular ATP (P. aeruginosa; during respiration): ~ fivefold
IC50 (E. coli membrane ATPase): ~7 µM

CC[C@H]1/C=C/C=C/C[C@@H](C)[C@H](O)[C@@](C)(O)C(=O)[C@@H](C)[C@H](O)[C@@H](C)C(=O)[C@@H](C)[C@H](O)[C@@H](C)/C=C/C(=O)O[C@@H]2[C@H](C)[C@H](CC1)O[C@]1(CC[C@H](C)[C@H](C[C@@H](C)O)O1)[C@H]2C [oligomycin]
Effect on ATPase activity of membrane and detergent-solubilized mitoFOF1 (mitoFOF1): inhibited ATPase activity of both forms

O=[Se](O)O [selenite]
Activation of membrane ATPase ([3]; selenite, ε88-stop membranes): fourfold
100% ATPase (specific activity just before addition of ventA) ([3]; ε88stop + 38.5 mM selenite): 3.4 (± 0.5) U/mg
100% ATPase (specific activity just before addition of ventA) ([1]; WT + 38.5 mM selenite): 2.3 (± 0.2) U/mg
Stimulation of ATPase activity ([1]; optimal selenite (38.5 mM), WT membranes): 2.8 fold
Activation of membrane ATPase ([4]; selenite): ~ fourfold

CCC(=O)C(C)C(O)C(C)CC(C)C1OC(=O)CC2(O)CC=C(C)C(O2)C(C)=CCCCC(OC2CC(O)C(O)C(C)O2)C=CC(C)CC1C (stereo not shown) [ventB, venturicidin B]
Reduction of Ki by selenite ([1]; WT): 2.3 fold
y0 (ATPase at saturating venturicidin) [1, 5]: 28% (±7)
y1 (venturicidin-sensitive ATPase, best fit of early rates) [1, 5]: 73% (±6)
y1 (venturicidin-sensitive ATPase, best fit of early rates) ([1]; WT, absence of selenite (Fig. S1 panel A), y0 fixed as 0): 136% (±7)
Ki for inhibition of early rate relative to respective Ki of ventA ([1]; WT, with or without selenite): ≥ tenfold
Ki [1, 5]: 4 µM
Ki ([1]; WT, absence of selenite (Fig. S1 panel A)): 9 µM

[N-]=[N+]=[N-] [azide]
Inhibition of ATPase activity ([1]; 6 µM azide in the assay): ~ 50%
100% ATPase (specific activity just before addition of ventA) ([1]; WT + 6 μM azide): 0.42 (± 0.02) U/mg
Inhibition of ATPase activity ([4]; excess azide): 80–90%
